Source: patent US10793514B2, “Glutamine transport inhibitors and methods for treating cancer” (Vanderbilt University, priority 2016, dated 2020)

Experiments:
ASCT1 (SLC1A4) = ASCT1 (SLC1A4) (Mus musculus (Mouse), UniProt O35874); experiment: Drug Affinity Responsive Target Stability (DARTS) assay, ASCT1; assay type: binding; conditions: thermolysin
Procedure: DARTS was carried out as previously described^15 using T-REx-293 cells with tetracycline-inducible expression of ASCT2 or lysate from 115 mg of homogenized mouse brain for ASCT1. […] Lysates were then incubated at room temperature with the protease Thermolysin (1:100 and 1:200 total enzyme to total substrate) for 30 min. ASCT2 was measured by immunoblotting (ASCT2 antibody: Millipore ABN73; ASCT1 antibody: Cell Signaling 8442).

human CRC cell lines = experiment: Follow-up viability screening (MultiTox Glo, sulforhodamine B); assay type: cell-based
Procedure: (§1) Viability was evaluated using a commercially available chemiluminescent reagents (CellTiter-Glo, Promega Corp. G7572; MultiTox Glo, Promega Corp. G9270) in 96-well plate format according to the manufacturers protocol. […] Subsequently, CellTiter-Glo reagent was added and the plates were read using a plate reader (BioTek Synergy 4) with standard settings. Each set of conditions was replicated at least three times, technically and biologically. Error is reported as standard deviation (SD). The sulforhodamine B assay was run analogously to the above assays as previously described^19.

[1] = system: activated CD8-positive T-cells; experiment: Viability and activation of CD8-positive T-cells; assay type: cell-based, mouse; conditions: 96 hrs
Procedure: CD8+ cells were isolated from the spleens of 8-12 week old C57BL6 mice on standard chow from Jackson Labs maintained under IACUC approved protocols. CD8+ cells were stained using the proliferative dye Cell Trace Violet (LifeTech) before stimulation as per manufacturer's protocol. Cells were stimulated on 5 ug/mL anti-CD3/CD28-coated plates in media containing IL-2 (‘activated’, 10 ng/mL), or in tissue-culture treated plates in media containing IL-7 (‘naive’, 1 ng/mL) for up to 7 days. Cells were removed at each day described for viability, cell counts, proliferation, and surface markers of activation. Cell surface markers used were CD62L-FITC and APC, CD44-PECy5 and CD25-PE. All data were acquired in triplicate on a MacsQuant Analyzer (Miltenyi Biotec) and analyzed using FlowJo V10 (TreeStar software).

HCC1806 cells = experiment: Immunoblot of pS6 and pERK in HCC1806 cells; assay type: cell-based, human; conditions: 25 μM, 48 hrs
Procedure: For immunoreactivity studies, tissue samples were diluted to 100 mg/mL in lysis buffer (#7018s, Cell Signaling Technology) and subsequently homogenized, sonicated, and spun at 3.5K RPM for 1 min. Lysate samples were then screened against an array of target-specific capture antibodies using PathScan Intracellular Signaling Array Kits (#7323, Cell Signaling Technology) in accordance with the manufacturer's instructions and developed using HyBlot CL autoradiography film (# e3012, Denville Scientific Inc.). Processed films were digitized using an Epson Perfection V600 Photo scanner and the relative pixel intensities for each blot quantified using the image processing software ImageJ. Complementary western blot studies were performed by loading 20-40 μg of protein into 7.5-12% SDS PAGE gels, […]. Membranes were blocked overnight at 4° C. in trisbuffered saline 0.1% Tween-20 (TBST) containing 5% w/v nonfat dry milk powder and subsequently incubated with antibodies to p-ERK 1/2 Thr202/Tyr204 (Cell Signaling, 4370), pS6 (Cell Signaling, #4858) LC3B, (anti LC3B, Cell signaling 2775), or b-tubulin (Novus Biologicals, NB600-936); Membrane chemiluminescence was imaged on a Xenogen IVIS 200 system.

HCC1806 and HT29 cells = experiment: Autophagic flux (CYTO-ID); assay type: cell-based, human
Procedure: Autophagic flux was measure using the CYTO-ID autophagy detection kit (Enzo Life Sciences ENZ-51031). HCC1806 and HT29 cells were seeded in 96 well plates the day before the experiment. […] Following treatment, cells were gently washed with assay buffer followed by addition of the dual color detection solution and incubation at 37° C. for 30 min. The plate was analyzed on a fluorescence microplane reader (BioTek Synergy 4).

HT29 and HCT-116 cells = experiment: Cell viability with or without chloroquine; assay type: cell-based, human; conditions: combined with chloroquine (10 μM), 48 h
Procedure: as §1

[2] = system: human CRC organoids A-007 and A-008; experiment: Human CRC organoid viability assay; assay type: cell-based; conditions: V-9302 25 μM or CB-839 35 μM, 96 h
Procedure: Human CRC-derived organoids were prepared as reported method with modification^41. Briefly, specimens from freshly resected tumors were minced and digested with 2 mg/ml type 2 collagenase (Worthington, N.J., USA). Samples were passed through 40 µm filters (Greiner Bio One, NC, USA) and epithelial cells trapped on the filters were embed in Matrigel (Corning, MA, USA) and cultured with advanced DMEM/F12 supplemented with N2 and B27 supplements (Thermo Fischer, MA, USA), 50 ng/ml rhEGF (R&D systems, MN, USA) and 1% antibiotic-antimycotic (Corning). For viability assay, organoids were dissociated by TrypLE express (Thermo Fischer) and suspended in Matrigel. […] After 4 days of culture, images of the organoids in Matrigel were captured and the number of viable cells were quantified with CellTiter Aqueous One Cell Proliferation Assay kit (Promega, WI, USA) and a Synergy 4 plate reader (BioTek, VT, USA). The assay was replicated at least three times, technically and biologically. Significance was calculated using a t-test in Graphpad Prism. Error is reported as standard deviation (SD).

[3] = V-9302 concentration in whole blood with time; assay type: in vivo, mouse; conditions: single dose 75 mg/kg, healthy mice
Procedure: Liquid chromatography-tandem mass spectroscopy (LC-MS/MS) analyses were performed via reverse phase chromatography using a Shimadzu Nexera X2 UPLC (Columbia, Md.) coupled with a QTrap® 5500 (Sciex, Framinghman, MA, USA). […] Blank samples were made using fresh whole blood applied to Mitra® Microsamplers and allowed to dry for at least 24 h. All data were collected using Sciex Analyst 1.6.2 software and analyzed with MultiQuant 3.0 software. Error is reported as standard deviation (SD).

Chain of ASCT1 (SLC1A4) (O35874 whole entry): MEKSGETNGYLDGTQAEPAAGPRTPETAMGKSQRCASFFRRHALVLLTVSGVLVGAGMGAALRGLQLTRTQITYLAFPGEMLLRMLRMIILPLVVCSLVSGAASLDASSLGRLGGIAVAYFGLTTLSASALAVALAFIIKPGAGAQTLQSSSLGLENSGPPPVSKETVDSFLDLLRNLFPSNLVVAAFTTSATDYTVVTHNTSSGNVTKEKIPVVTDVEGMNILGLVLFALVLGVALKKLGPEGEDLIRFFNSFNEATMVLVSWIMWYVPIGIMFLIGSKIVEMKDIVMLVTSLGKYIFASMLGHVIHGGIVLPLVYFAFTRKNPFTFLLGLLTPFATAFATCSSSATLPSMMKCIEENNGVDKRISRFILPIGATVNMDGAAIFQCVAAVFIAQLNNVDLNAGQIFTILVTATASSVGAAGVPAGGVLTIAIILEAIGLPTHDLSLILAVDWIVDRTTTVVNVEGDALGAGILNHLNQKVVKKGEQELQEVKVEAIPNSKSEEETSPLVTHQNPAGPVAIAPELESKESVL

With `Cc1cccc(COc2ccccc2CN(CCC(N)C(=O)O)Cc2ccccc2OCc2cccc(C)c2)c1` (stereo not shown) [Compound V-9302] the “stabilization of ASCT1” value (ASCT1 (SLC1A4)) was “not stabilized”, the “cellular viability and cell death” value (human CRC cell lines; 25 μM, 48 h, three independent assays lacking ATP-dependency) was “reduced cellular viability and increased cell death” and the EC50 (human CRC cell lines; four human CRC cell lines, 48 hrs, MultiTox Glo, read-out: EC50, cellular viability) was 9 to 15 µM. The T-cell activation ([1]; CD44 expression) was “not impaired”, the T-cell viability ([1]; in vitro, relative to vehicle) was “unchanged relative to vehicle” and the pERK (HCC1806 cells) was “modest decrease in pERK”. For the same compound, the pS6 (HCC1806 cells) was “significantly decreased pS6”, the “number of autophagic vesicles” value (HCC1806 and HT29 cells; HT29 cells, combined with chloroquine (10 μM)) was “further increased the number of autophagic vesicles” and the autophagic flux (HCC1806 and HT29 cells; single agent) was “elevated with V-9302 exposure in a concentration-dependent manner”. For the same compound, the “cell viability, combination” value (HT29 and HCT-116 cells) was “further decreased cell viability”, the organoid viability [2] was “significantly reduced” and the half-life ([3]; mouse, whole blood) was roughly 360 min. For the same compound, the “time to steady-state whole blood concentration” value [3] was 4 h.
